Consider 61 molecules from a melting point compilation (Tetko et al.; mined from patent text by program, amines drawn as free bases though some values may be those of a salt).

A word on the melting point: it is the temperature of the solid-liquid transition.

For the molecule `COc1cc2c(cc1Nc1ncc(Cl)c(Nc3ccccc3S(=O)(=O)N(C)C)n1)CCN(CC(=O)N(C)C)CC2`, the melting point fell in the range of 218 to 225 °C.

`Cc1oc(-c2ccccc2)nc1COc1cc(COc2nn(C)cc2CC(=O)O)on1` returned a melting point of 149 to 150 °C. In turn, `CC(C)[C@H](NC(=O)OCc1ccccn1)C(=O)N[C@@H](Cc1ccccc1)C[C@H](OC=O)[C@H](Cc1ccccc1)NC(=O)[C@@H](NC(=O)OCc1ccccn1)C(C)C` returned a melting point of 206 to 207 °C. For `CN(Cc1ccccc1)S(=O)(=O)CC(N)=O` the value was 124 to 127 °C; for `Cc1nc(-n2cnn(CCOCc3ccc(F)cc3)c2=O)sc1C(=O)NCc1cccnc1`, 235 to 236 °C; for `CN(CCO)CCn1nc2c3c(c(NCCNCCO)ccc31)C(=O)c1c(O)ccc(O)c1-2`, 191 to 194 °C. Molecule `CCOC(=O)c1cn(-c2nccs2)c2nc(Cl)cc(Cl)c2c1=O` had a melting point of 226 to 227 °C.

`O=C1c2cccc3c([N+](=O)[O-])c(Br)cc(c23)C(=O)N1O` displayed a melting point of 232 to 233 °C.

With `CN1C2CCC1CC(O)(c1ccc(C(F)(F)F)cc1)C2` (stereo unspecified), the melting point was in the range of 189 to 190 °C.

Take `COc1ccccc1C(=O)c1cccc(C#N)c1`: the melting point stood at 180 °C. `CCCc1cc(I)ccc1O` showed a melting point of 54 to 56 °C. The figure for `CC(C)(C)c1cc(SCc2cccc(-c3nnn[nH]3)c2)cc(C(C)(C)C)c1O` is 177 to 178 °C; for `CC(C)COC1C=CC(=O)N1S(=O)(=O)c1ccccc1` (stereo unspecified) it is 82 to 83 °C. For `CCOC(=O)c1cc2cc(OCCCCCBr)ccc2o1` the value was 31 °C; for `NC(=O)CC[C@H](NC(=O)c1ccc(OCc2ccccc2)cc1OCc1ccccc1)C(=O)N1CCN(c2ccccc2)CC1`, 157 to 158 °C; for `O=C(CCCN1CCN(c2ccc(CO)c(Cl)c2)CC1)c1ccc(Cl)cc1`, 137 to 139 °C. For `CN(C)CCOc1cccc2c1c1cccc3c1n2C(c1ccccc1)CO3` (stereo unspecified), the melting point lay in the range of 117 to 118 °C. For `CC(C)(C)C(NC(=O)c1cccc(Cl)c1)Nc1c(Nc2cnccn2)c(=O)c1=O` (stereo unspecified) the value was 245 to 247 °C; for `Cc1nn(C)c(NCC(C)(C)C)c1NCc1ccncc1`, 88 to 90 °C. The figure for `O=Cc1c(F)cccc1NCc1ccccc1` is 72.5 to 74.5 °C. The figure for `Cc1cccc(-c2nc(-c3ccc(S(C)(=O)=O)cc3)sc2-c2ccnc(C)c2)c1` is 134 to 138 °C.

Molecule `Cn1cc(C(=O)NCc2ccc(Cl)cc2)c(=O)c2cc(CN3CCOCC3)cc(F)c21` gave a melting point of 187 to 189 °C.

In turn, `O=c1[nH]nc2n1-c1ccc(Cl)nc1C(c1ccccc1)=[N+]([O-])C2` gave a melting point of 268 to 270 °C. The figure for `CCn1ncc2c3onc(-c4ccc(Cl)cc4)c3cnc21` is 195 to 197 °C. Consider `COc1ccc(C)cc1NC(=O)Nc1ccc(N2CCN(C(=O)Nc3cc(OCCO)ccc3Cl)CC2)cc1`, for which the melting point was in the range of 121 to 124 °C. Turning to `Cc1cccc(NC(=O)n2nc(Oc3cccc(C(F)(F)F)c3)cc2C)c1`, the melting point was in the range of 47 to 49 °C. For `CN1CC(C(=O)N(C)Cc2ccc(Cl)c(Cl)c2)=C(O)C1=O` the value was 148 to 150 °C. For `O=C(/C=C/c1ccc(C(=O)Nc2cccc(Nc3nc(-c4cccnc4)cs3)c2)cc1)NOC1CCCCO1` (stereo unspecified), the melting point is 158 °C. Consider `COc1nc(OC)c(C(C)C)c(C(=O)c2cc(C)cc(C(OC)OC)c2)n1`, for which the melting point was 86 to 88 °C. `CCCCCCCCCCCc1[nH]c2cc(C(=O)O)ccc2c1C` showed a melting point of 153 to 156 °C. The figure for `CCCN(CCC)c1ccc(NC(=O)N(C[C@H]2CC[C@H](CN(C(=O)Nc3ccc(N(CCC)CCC)cc3)C3CCCCC3)CC2)C2CCCCC2)cc1` is 147 to 150 °C; for `Cc1c(NC(=O)CC(C)(C)C)cc2c(c1C)OC(C)(C)C2CCc1ccccc1` (stereo unspecified) it is 158 to 159 °C; for `COc1ccc2c(c1[N+](=O)[O-])CN(S(C)(=O)=O)CC(=O)N2` it is 222 to 226 °C. For `COc1cc(Nc2c(C#N)cnc3cc(Br)sc23)c(Cl)cc1Cl` the value was 228 to 229 °C; for `O[C@H](COc1cccc2[nH]ccc12)CN1CCC(c2c[nH]c3ccc(F)cc23)CC1`, 94 to 97 °C; for `NC(=O)C1(c2ccccc2)CCN(Cc2ccccc2)CC1`, 117 to 118 °C.

In turn, `C1=C(c2c[nH]cn2)c2ccccc2C1` gave a melting point of 232 to 240 °C. For `COc1ccc(S(=O)(=O)Nc2cc(Cl)cc(Cl)c2OC)cc1N1CCNCC1` the value was 189 to 190 °C; for `O=C(O)CCCc1cc(C(c2cc(F)ccc2F)S(=O)(=O)c2ccc(Cl)cc2)c(Cl)cn1` (stereo unspecified), 147 to 148 °C. The figure for `CC(=O)N1CC(=O)c2ccccc21` is 138 °C; for `CCCCc1nc(C)n2[nH]c(=O)nc2c1Cc1ccc(-c2ccccc2C(=O)O)cc1` it is 210 to 211 °C. The figure for `O=c1[nH]c2c(n(O)c1=O)C1=C(CCC(n3ccc(CN4CCN(c5ccc([N+](=O)[O-])cc5)CC4)c3)=C1)CC2` is greater than 230 °C. `CCOC(Nc1ccccc1)(OCC)c1ccnc(C(=O)c2ccc(Cl)cc2)c1` displayed a melting point of 98 to 99 °C. For `CCOC(=O)c1cc(NC(C)=O)cnc1C(=O)OCC` the value was 108 to 110 °C; for `COC(=O)CCC(C)C(=O)O` (stereo unspecified), 97 to 99 °C; for `CCOC(=O)C(C(=O)C=CC(C)Oc1ccc(Oc2ccc(C(F)(F)F)cc2)cc1)C(=O)OCC` (stereo unspecified), 52 to 55 °C. The molecule `COCCCn1ccc2c3c(c(-c4ccccc4Cl)cc21)C(=O)NC3=O` came in with a melting point of 171 to 172 °C. `Cc1cccc2cccc(O)c12` returned a melting point of 56 to 59 °C. The figure for `CC1(C)CC(=O)C(c2ccc([N+](=O)[O-])cc2Cl)C(=O)C1` is 250 to 253 °C; for `CCCc1nc2c(N)nc3c(c2n1CCCC(=O)N1CCOCC1)CCCC3` it is 181 to 183 °C. The figure for `CN1CCCC1=Cc1ccc(Br)cc1` is 83 to 84 °C.

`COc1c(Br)ccc2ccc(Cl)nc12` came in with a melting point of 130 to 132 °C. The figure for `CC1(C)COc2cc(Cl)cc(Cl)c2C(O)(c2ccccn2)C1` (stereo unspecified) is 156 °C; for `Cc1cc(O)c(I)cc1C(=O)O` it is 143 to 150 °C.

`CC(C(=O)N(C)C)n1nc(-c2ccccc2)cc1-c1ccccc1` (stereo unspecified): the melting point fell in the range of 133 to 135 °C.

With `COC1(c2ccc(C)cc2)CCC(=NO)CC1` (stereo unspecified), the melting point was in the range of 114 to 116 °C. For `CC(=O)NC[C@H]1CN(c2ccc(-n3ccnn3)c(F)c2)C(=O)O1` the value was 193 to 194 °C; for `CC(=O)Nc1ccc(C(=S)NN)cc1`, 220 to 221 °C. `CCc1nc2c(C)cc(C)nc2n1Cc1ccc(C(=Cc2nnn[nH]2)c2ccc(C(F)(F)F)cc2)cc1` registered a melting point of 124 to 129 °C. For the molecule `CCCc1cc(=O)oc2c3c(c4c(c12)OC(C)(C)C=C4)OC(C)C(C)C3O` (single isomer, unassigned; (-)), the melting point lay within 52 to 54 °C. The figure for `O=C(NC1(C2CC2)CC1)c1c(NC(=O)c2cc(C(F)(F)F)nn2-c2ncccc2Cl)c(Br)cc2cn[nH]c12` is 212 to 214 °C.
